This is an account of results in patent US12060351B2, “Thiadiazole IRAK4 inhibitors” (Gilead Sciences, Inc., priority 2018, dated 2024).

In assay [1] the test system is TNFα. Nature of the assay: IRAK4 Monocyte TNFα Cell Based Assay (LPS-stimulated, TR-FRET TNFα detection). More on the design: species or system human. Conditions: Homo sapiens, Monocyte, human monocytes, LPS-stimulated; Table 2 second part (compounds 33-343); read-out: EC50 MONO TNF HTRF. The method, boiled down: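 Monocytes (5,000 cells/well) treated with compound (0.1% DMSO) for 1 hour at 37° C, then stimulated with 50 pg/ml LPS for 4 hours. TNFα in medium quantified by TR-FRET two-antibody detection after overnight room-temperature incubation. Percent of control calculated against unstimulated (0%) and LPS-stimulated (100%) cells.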

The target of assay [2] is T1, IRAK4 enzyme (Homo sapiens, UniProt Q9NWZ3).
T1 construct: purchased Carna Biosciences, Chuo-ku, Kobe, Japan
T1 sequence (Q9NWZ3 1-460): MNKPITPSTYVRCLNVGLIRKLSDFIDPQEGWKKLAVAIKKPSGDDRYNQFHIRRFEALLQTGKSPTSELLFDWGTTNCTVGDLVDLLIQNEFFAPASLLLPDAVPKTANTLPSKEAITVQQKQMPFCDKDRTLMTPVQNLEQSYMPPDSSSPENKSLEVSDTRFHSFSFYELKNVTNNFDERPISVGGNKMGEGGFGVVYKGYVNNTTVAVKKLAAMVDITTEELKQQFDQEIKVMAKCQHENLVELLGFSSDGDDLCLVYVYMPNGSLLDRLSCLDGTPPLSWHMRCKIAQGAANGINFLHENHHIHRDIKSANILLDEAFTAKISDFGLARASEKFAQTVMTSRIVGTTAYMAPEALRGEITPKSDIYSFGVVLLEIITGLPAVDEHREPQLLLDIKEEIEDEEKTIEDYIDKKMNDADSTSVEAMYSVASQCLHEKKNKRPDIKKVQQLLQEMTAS
Nature of the assay: IRAK4 Biochemical Assay (TR-FRET, STK1 KinEASE). Conditions: 500 μM ATP, Table 2 second part (compounds 33-343), read-out: IC50 IRAK4-HTBS. The method, boiled down: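 Human IRAK4 (0.75 nM) preincubated 15 min with compound and 2 μM STK1 peptide, then reacted 120 min at room temperature with 500 μM ATP in HEPES pH 7.0 buffer with MgCl2 and DTT. EDTA stop with Cryptate anti-phosphopeptide antibody and tracer, 60 min; TR-FRET read as 665/615 nm ratio.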

As a reminder, the EC50 is the midpoint of the concentration-response curve. The term IC50 denotes the point on the concentration scale where inhibition reaches its midpoint. Regarding `COC(=O)N[C@H]1CC[C@H](c2nnc(-c3cnc(-c4ccc5cc(C#N)cnn45)cc3NC(C)C)s2)CC1` [Example 126, methyl ((1r,4r)-4-(5-(6-(3-cyanopyrrolo[1,2-b]pyridazin-7-yl)-4-(isopropylamino)pyridin-3-yl)-1,3,4-thiadiazol-2-yl)cyclohexyl)carbamate], the 50% effective concentration (EC50) in assay [1] is 26.2 nM. For the same molecule, the IC50 in assay [2] is 0.89 nM.

Turning to `CC(C)(O)C(=O)N[C@@H]1[C@@H]2CC[C@H]1CN(c1nnc(-c3cnc(-c4ccc5cc(C#N)cnn45)cc3NC3CCOCC3)s1)C2` [Example 101, N-((1R,5S,8s)-3-(5-(6-(3-cyanopyrrolo[1,2-b]pyridazin-7-yl)-4-((tetrahydro-2H-pyran-4-yl)amino)pyridin-3-yl)-1,3,4-thiadiazol-2-yl)-3-azabicyclo[3.2.1]octan-8-yl)-2-hydroxy-2-methylpropanamide], the EC50 in assay [1] worked out at 1.2 nM. The 50% inhibitory concentration (IC50) in assay [2] was found to be 0.89 nM.

For `COC(=O)N[C@@H]1[C@@H]2CC[C@H]1CN(c1nnc(-c3cnc(-c4ccc5cc(C#N)cnn45)cc3NC(C)C)s1)C2` [Example 59, methyl ((1R,5S,8s)-3-(5-(6-(3-cyanopyrrolo[1,2-b]pyridazin-7-yl)-4-(isopropylamino)pyridin-3-yl)-1,3,4-thiadiazol-2-yl)-3-azabicyclo[3.2.1]octan-8-yl)carbamate], the EC50 in assay [1] came out at 14.7 nM. In addition, the IC50 in assay [2] is 1.97 nM.

`C[C@]1(O)C[C@@H](c2nnc(-c3cnc(-c4ccc5cc(C#N)cnn45)cc3NC3COC3)s2)C1` [Example 200, 7-(5-(5-((1s,3s)-3-hydroxy-3-methylcyclobutyl)-1,3,4-thiadiazol-2-yl)-4-(oxetan-3-ylamino)pyridin-2-yl)pyrrolo[1,2-b]pyridazine-3-carbonitrile]: the EC50 in assay [1] came to 24.1 nM. Also, the half-inhibitory concentration (IC50) in assay [2] was 0.63 nM.

Take `CC(C)Nc1cc(-c2ccc3cc(C#N)cnn23)ncc1-c1nnc(N2C[C@H]3CC[C@@H](C2)[C@@H]3NC(=O)N2CCOCC2)s1` [Example 57, N-((1R,5S,8s)-3-(5-(6-(3-cyanopyrrolo[1,2-b]pyridazin-7-yl)-4-(isopropylamino)pyridin-3-yl)-1,3,4-thiadiazol-2-yl)-3-azabicyclo[3.2.1]octan-8-yl)morpholine-4-carboxamide]: the EC50 in assay [1] worked out at 6.8 nM. Also, in assay [2], the concentration for half-maximal inhibition (IC50) was determined as 1.16 nM.

Take `COC(=O)N[C@H]1CC[C@@H](c2nnc(-c3cnc(-c4ccc5cc(C#N)cnn45)cc3NC3COC3)s2)CC1` [Example 205, methyl ((1s,4s)-4-(5-(6-(3-cyanopyrrolo[1,2-b]pyridazin-7-yl)-4-(oxetan-3-ylamino)pyridin-3-yl)-1,3,4-thiadiazol-2-yl)cyclohexyl)carbamate]: in assay [1], the half-maximal effective concentration (EC50) was determined as 20.1 nM. Moreover, the concentration for half-maximal inhibition (IC50) in assay [2] was determined as 0.62 nM.

For the molecule `CC(C)Nc1cc(-c2ccc3cc(C#N)cnn23)ncc1-c1nnc(C(=O)N[C@H]2CC[C@H](O)CC2)s1` [Example 220, 5-(6-(3-cyanopyrrolo[1,2-b]pyridazin-7-yl)-4-(isopropylamino)pyridin-3-yl)-N-((1r,4r)-4-hydroxycyclohexyl)-1,3,4-thiadiazole-2-carboxamide], the EC50 in assay [1] came to 131 nM. For the same molecule, the IC50 in assay [2] is 1.39 nM.

As for `CC(C)Nc1cc(-c2ccc3cc(C#N)cnn23)ncc1-c1nnc(N2C[C@H]3CC[C@@H](C2)[C@@]3(C)O)s1` [Example 153, 7-(5-(5-((1R,5S,8r)-8-hydroxy-8-methyl-3-azabicyclo[3.2.1]octan-3-yl)-1,3,4-thiadiazol-2-yl)-4-(isopropylamino)pyridin-2-yl)pyrrolo[1,2-b]pyridazine-3-carbonitrile], in assay [1], the EC50 was determined as 7.2 nM. Also, in assay [2], the 50% inhibitory concentration (IC50) was determined as 0.91 nM.

For `CC(C)Nc1cc(-c2ccc3cc(C#N)cnn23)ncc1-c1nnc(N2C[C@H]3CC[C@@H](C2)[C@@H]3NC(=O)C(=O)N=S(C)(C)=O)s1` [Example 103, N1-((1R,5S,8s)-3-(5-(6-(3-cyanopyrrolo[1,2-b]pyridazin-7-yl)-4-(isopropylamino)pyridin-3-yl)-1,3,4-thiadiazol-2-yl)-3-azabicyclo[3.2.1]octan-8-yl)-N2-(dimethyl(oxo)-16-sulfanylidene)oxalamide], the EC50 in assay [1] stood at 1.4 nM. For the same molecule, the IC50 in assay [2] was 0.51 nM.
